In patent US20070142356A1, “Association of a sinus node If curent inhibitor and a calcium inhibitor, and pharmaceutical compositions containing it” (LES LABORATOIRES SERVIER, priority 2005, published 2007):

Tested on: patients being treated with dihydropyridine type calcium antagonists who still complained of painful angina pectoris attacks
Test: Clinical studies 019 and 021: angina attacks in patients on dihydropyridines given concomitant ivabradine
Type: in vivo
Conditions: for Change in the number of angina pectoris attacks, %: after 1 year of ivabradine versus inclusion; for Number of angina pectoris attacks (per week), after treatment: patients on dihydropyridines on inclusion, ivabradine for 1 year
Source text: Two clinical studies carried out in patients being treated with dihydropyridine type calcium antagonists who still complained of painful angina pectoris attacks (despite the calcium antagonist) have shown that concomitant treatment with ivabradine makes it possible to reduce these attacks very substantially (by about 60%).

COc1cc2c(cc1OC)CC(=O)N(CCCN(C)C[C@H]1Cc3cc(OC)c(OC)cc31)CC2 [ivabradine, 3-{3-[{[(7S)-3,4-dimethoxy-bicyclo[4.2.0]octa-1,3,5-trien-7-yl]methyl}(methyl)amino]propyl}-7,8-dimethoxy-1,3,4,5-tetrahydro-2H-3-benzazepin-2-one]
Change in the number of angina pectoris attacks, % (Study 019, n = 27): −61.4%
Number of angina pectoris attacks (per week), after treatment (Study 019, n = 27): 0.7 ± 1.3 per week
Change in the number of angina pectoris attacks, % (Study 021, n = 114): −58.9%
Number of angina pectoris attacks (per week), after treatment (Study 021, n = 114): 0.9 ± 2.9 per week
Reduction of painful angina pectoris attacks (two clinical studies, ivabradine concomitant with dihydropyridine calcium antagonist): about 60%
